Counter-ions that a name gives are not always drawn. Like-named read-outs stand apart in the source and are kept apart here.
Columns and labels:
[1] = biological target: T1, NR1A/NR2B NMDA receptor subtype (Rattus norvegicus, UniProt P35439+Q00960); assay: [3H]Ifenprodil binding assay (IFPNR), rat forebrain membranes
T1 construct: buffy coat membrane fraction was prepared from frozen adult rat forebrains; tissue Zivic-Miller Laboratories, Inc; host or cells: adult rat forebrain membranes
Experimental: b. [^3H]Ifenprodil Binding Assay (IFPNR) Protocol:
Ifenprodil, [phenyl-^3H]-(specific activity, 66.2 Ci/mmol) was purchased from Dupont NEN Research Products (Boston, Mass.). Ifenprodil tartrate was purchased from Research Biochemicals International (Natick, Mass.). HEPES, glutamate and glycine were purchased from Sigma Chemical Co. (St. Louis, Mo.).
All buffers and reagents used in assay incubations or to dissolve drugs were prepared using water purified through a Milli-Q reverse osmosis system (Millipore Corp., Bedford, Mass.) and treated with UV emissions. Prior to use in the assays buffers were further filtered through a sterile Coming filtration unit (Coming Glass Works, Coming, N.Y.) containing a 0.2 micron filter. Buffer used to rinse the membranes on the assay filters was prepared with purified water, but was not refiltered and was stored no longer than 5 days. Stock solutions of the drugs (usually 10 mM) were dissolved in 20 mM HEPES-KOH buffer pH 7.4 (assay buffer) with the addition of 1 to 5 μL of glacial AcOH, if needed to keep them in solution. Eliprodil was used as the reference NMDA antagonist. A stock solution of eliprodil was prepared, and was buffered with the addition of 10% DMSO. All subsequent dilutions from the stock solution were made in buffer.
An extensively washed buffy coat membrane fraction was prepared from frozen adult rat forebrains (Zivic-Miller Laboratories, Inc., Zelienople, Pa.) as described by Coughenour L. L.; Cordon, J. J., J. Pharmacol. Exp. Ther., 1997;280:584-592, and stored at −80° C. On the day of the assay, pellets of the frozen membrane fractions were resuspended in 35 mL of assay buffer at pH 7.4 using a POLYTRON (Kinematica A. G. Company, Littau, Switzerland) mixer at setting 6. After incubation at 37° C. for 30 minutes in a shaking water bath, the homogenate was centrifuged 40,000×g for 10 minutes at 4° C. The pellets were resuspended in fresh buffer and centrifuged 3 more times before final suspension for use in the assay.
(iii) [^3H]Ifenprodil Binding protocol:
Triplicate incubations were carried out in a volume of 0.5 mL in 1.3 mL polypropylene tubes (Marsh Biomedical Products Inc, Rochester, N.Y.) for 2 hours at room temperature. Incubations contained invention compounds, membranes (100-200 μg protein) and 4 nM [^3H]-ifenprodil in 20 mM HEPES-KOH buffer, pH 7.4 (assay buffer). Assays were started by addition of the membranes. Bound radioligand was separated by filtration under reduced pressure using a TOMTEC Mach II, 96-well cell harvester (Tomtec Inc, Orange, Conn.). Filtration was through Whatman GF/B glass fiber filters (Whatman Ltd., Maidstone, England), which had been soaked for at least 15 minutes in 0.3% polyethylenimine and allowed to air dry. The filters were rinsed with 3 mL of ice cold assay buffer within 6 seconds. Air was allowed to pass through the filters for an additional 10 seconds to remove residual moisture. The filter mat was supported on a cold (−20° C.) TEFLON (E. I. Du Pont de Nemours and Company, Wilmington, Del.) coated support, and filters from individual wells were separated and placed in Mini Poly-Q vials (Becklman Instruments Inc, Fullerton, Calif.) and filled with 4 mL of scintillation cocktail (Beckman Ready Protein^+). Radioactivity retained on the filter was determined by liquid scintillation spectrophotometry. Nonspecific binding was defined as the binding in the presence of […] ifenprodil. Ninety percent of the total binding of ifenprodil was specific binding at the NR1A/NR2B NMDA receptor subtype active site (as opposed to binding at a remote site).
Binding curves were statistically analyzed for a best 1- or 2-site competition fit using GRAPHPAD PRISM software (GraphPad Software Inc, San Diego, Calif.), a computer program used to analyze and graph scientific data. The normalized data was fitted by nonweighted nonlinear regression to either [formula]
Control data was entered as 100%, and no parameters were constrained. […]

[2] = Table 3, 4 nM [3H]-ifenprodil, read-out: IFPNR IC50
[3] = Table 2, 4 nM [3H]-ifenprodil, read-out: IFPNR IC50 μm
[4] = Table 4, 4 nM [3H]-ifenprodil, read-out: IFPNR IC50
[5] = Table 5, 4 nM [3H]-ifenprodil, read-out: IFPNR IC50

T1 sequence (Q00960 27-1482, other chains not shown): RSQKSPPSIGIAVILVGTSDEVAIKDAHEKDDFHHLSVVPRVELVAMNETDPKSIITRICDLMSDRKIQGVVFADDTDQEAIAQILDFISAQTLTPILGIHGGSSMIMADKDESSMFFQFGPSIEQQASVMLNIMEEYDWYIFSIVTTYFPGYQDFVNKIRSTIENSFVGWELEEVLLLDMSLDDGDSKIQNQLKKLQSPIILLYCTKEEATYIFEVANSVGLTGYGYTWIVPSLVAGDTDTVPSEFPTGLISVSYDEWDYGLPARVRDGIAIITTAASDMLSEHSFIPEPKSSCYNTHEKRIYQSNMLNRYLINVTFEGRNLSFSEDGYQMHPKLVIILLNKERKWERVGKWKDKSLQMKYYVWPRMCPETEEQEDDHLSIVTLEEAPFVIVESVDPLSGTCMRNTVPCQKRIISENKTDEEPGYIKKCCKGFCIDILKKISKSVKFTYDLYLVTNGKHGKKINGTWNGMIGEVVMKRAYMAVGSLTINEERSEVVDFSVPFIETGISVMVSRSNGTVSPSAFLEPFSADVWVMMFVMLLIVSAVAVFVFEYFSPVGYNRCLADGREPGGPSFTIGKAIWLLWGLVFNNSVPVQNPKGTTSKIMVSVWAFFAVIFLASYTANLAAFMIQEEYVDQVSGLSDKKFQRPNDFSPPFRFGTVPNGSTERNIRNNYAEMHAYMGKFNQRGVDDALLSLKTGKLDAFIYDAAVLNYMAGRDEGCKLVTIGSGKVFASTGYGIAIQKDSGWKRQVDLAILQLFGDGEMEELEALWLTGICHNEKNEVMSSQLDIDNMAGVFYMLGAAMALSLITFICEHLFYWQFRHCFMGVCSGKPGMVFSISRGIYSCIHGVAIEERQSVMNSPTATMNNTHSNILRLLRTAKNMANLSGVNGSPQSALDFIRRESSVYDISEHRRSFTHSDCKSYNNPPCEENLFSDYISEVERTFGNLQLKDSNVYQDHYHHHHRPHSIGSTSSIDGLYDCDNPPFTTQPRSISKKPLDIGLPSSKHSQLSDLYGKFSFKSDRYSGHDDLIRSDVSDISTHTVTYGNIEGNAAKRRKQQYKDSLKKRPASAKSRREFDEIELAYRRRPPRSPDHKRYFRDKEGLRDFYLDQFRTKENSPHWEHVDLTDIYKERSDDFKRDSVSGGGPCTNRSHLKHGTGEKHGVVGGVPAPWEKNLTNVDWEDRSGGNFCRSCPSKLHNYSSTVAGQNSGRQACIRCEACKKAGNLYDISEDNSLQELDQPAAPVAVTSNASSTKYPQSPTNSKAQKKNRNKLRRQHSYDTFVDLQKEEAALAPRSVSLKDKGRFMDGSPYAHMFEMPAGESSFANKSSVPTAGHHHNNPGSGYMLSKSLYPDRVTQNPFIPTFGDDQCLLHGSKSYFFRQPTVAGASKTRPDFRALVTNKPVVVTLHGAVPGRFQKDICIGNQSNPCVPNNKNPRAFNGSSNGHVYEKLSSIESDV

SMILES: O=c1[nH]c2ccc(C3=NOC(CN4CCC(Cc5ccc(F)cc5)CC4)C3)cc2s1 (centres unmarked) (as salt: HCl) [Example 16]
- melting point: 271 to 276 °C

SMILES: O=c1[nH]c2ccc(C3=NOC(CN4CCC(O)(Cc5ccc(F)cc5)CC4)C3)cc2o1 (centres unmarked) [Example 20, 6-{5-[4-(4-Fluorobenzyl)-4-hydroxypiperidin-1-ylmethyl]-4,5-dihydroisoxazol-3-yl}-3H-benzoxazol-2-one]
- IC50 [1, 2]: 0.008 µM

SMILES: S=c1[nH]c2ccc(-c3cnc(CN4CCC(Cc5ccccc5)CC4)s3)cc2[nH]1 [Example 8, 5-[2-(4-Benzylpiperidin-1-ylmethyl)thiazol-5-yl]-1,3-dihydrobenzimidazole-2-thione]
- IC50 [1, 3]: 0.066 µM

SMILES: COC(=O)C1(CN2CCC(Cc3ccc(F)cc3)CC2)CC(c2ccc3[nH]c(=O)oc3c2)=NO1 (centres unmarked) (as salt: salt) [Example 23, 5-[4-(4-Fluorobenzyl)piperidin-1-ylmethyl]-3-(2-oxo-2,3-dihydrobenzoxazol-6-yl)-4,5-dihydroisoxazole-5-carboxylic acid methyl ester]
- melting point: 146 to 155 °C

SMILES: O=c1[nH]c2ccc(C3=NOC(CN4CCC([S+]([O-])c5ccc(F)cc5)CC4)C3)cc2o1 (centres unmarked) (as salt: HCl) [Example 29, 6-{5-[4-(4-Fluorobenzenesulfinyl)piperidin-1-ylmethyl]-4,5-dihydroisoxazol-3-yl}-3H-benzoxazol-2-one]
- melting point: 170 to 178 °C

SMILES: O=c1[nH]c2ccc(C3=NCC(CN4CCC(Cc5ccccc5)CC4)S3)cc2o1 (centres unmarked) [Example 13, 6-[5-(4-Benzylpiperidin-1-ylmethyl)-4,5-dihydrothiazol-2-yl]-3H-benzoxazol-2-one]
- IC50 [1, 3]: 0.101 µM

SMILES: O=c1[nH]c2ccc(C3=NOC(CN4CCC([S+]([O-])c5ccc(F)cc5)CC4)C3)cc2o1 (centres unmarked) [Example 29, 6-{5-[4-(4-Fluorobenzenesulfinyl)piperidin-1-ylmethyl]-4,5-dihydroisoxazol-3-yl}-3H-benzoxazol-2-one]
- IC50 [1, 4]: 0.6 µM

SMILES: O=c1[nH]c2ccc(-c3cnc(CN4CCC(Cc5ccc(F)cc5)CC4)s3)cc2o1 [Example 6, 6-{2-[4-(4-Fluorobenzyl)piperidin-1-ylmethyl]thiazol-5-yl}-3H-benzoxazol-2-one]
- IC50 [1, 3]: 0.54 µM

SMILES: O=C1Cc2cc(-c3cnc(CN4CCC(Cc5ccccc5)CC4)o3)ccc2N1 [Example 11, 5-[2-(4-Benzylpiperidin-1-ylmethyl)oxazol-5-yl]-1,3-dihydroindol-2-one]
- IC50 [1, 3]: > 1 µM

SMILES: O=c1[nH]c2ccc(C3=NOC(CN4CCC(O)(Cc5ccccc5)CC4)C3)cc2o1 (centres unmarked) [Example 17, 6-[5-(4-Benzyl-4-hydroxypiperidin-1-ylmethyl)-4,5-dihydroisoxazol-3-yl]-3H-benzoxazol-2-one]
- IC50 [1, 2]: 0.006 µM

SMILES: O=c1[nH]c2ccc(-c3cnc(CN4CCC(Cc5ccc(F)cc5)CC4)o3)cc2s1 [Example 9, 6-{2-[4-(4-Fluorobenzyl)piperidin-1-ylmethyl]oxazol-5-yl}-3H-benzothiazol-2-one]
- IC50 [1, 3]: > 1 µM

SMILES: O=c1[nH]c2ccc(C3=NOC(CN4CCC(O)(Cc5ccc(F)cc5)CC4)C3)cc2o1 (centres unmarked) (as salt: HCl) [Example 20, 6-{5-[4-(4-Fluorobenzyl)-4-hydroxypiperidin-1-ylmethyl]-4,5-dihydroisoxazol-3-yl}-3H-benzoxazol-2-one]
- melting point: 195 to 204 °C

SMILES: O=c1[nH]c2ccc(C3=NOC(CN4CCC(C(O)c5ccc(F)cc5)CC4)C3)cc2o1 (centres unmarked) [Example 31, 6-(5-{4-[(4-Fluorophenyl)hydroxymethyl]piperidin-1-ylmethyl}-4,5-dihydroisoxazol-3-yl)-3H-benzoxazol-2-one]
- IC50 [1, 4]: > 1 µM

SMILES: O=c1[nH]c2ccc(C3=NOC(CCN4CCC(Cc5ccc(F)cc5)CC4)C3)cc2o1 (centres unmarked) (as salt: HCl) [Example 19, 6-(5-{2-[4-(4-Fluorobenzyl)piperidin-1-yl]ethyl}-4,5-dihydroisoxazol-3-yl)-3H-benzoxazol-2-one]
- melting point: 254 to 258 °C

SMILES: O=c1[nH]c2ccc(C3=NCC(CN4CCC(Cc5ccc(F)cc5)CC4)S3)cc2o1 (centres unmarked) [Example 12, 6-{5-[4-(4-Fluorobenzyl)piperidin-1-ylmethyl]-4,5-dihydrothiazol-2-yl}-3H-benzoxazol-2-one]
- IC50 [1, 3]: 0.394 µM

SMILES: O=c1[nH]c2ccc(C3=NOC(CN4CC[C@@H](Cc5ccc(F)cc5)[C@@H](O)C4)C3)cc2o1 (stereo in doubt) (as salt: HCl) [Example 26, 6-{5-[4-(4-Fluorobenzyl)-3-hydroxypiperidin-1-ylmethyl]-4,5-dihydroisoxazol-3-yl}-3H-benzoxazol-2-one]
- melting point: 224 to 233 °C

SMILES: O=c1[nH]c2ccc(-c3cnc(CN4CCC(Cc5ccc(F)cc5)CC4)s3)cc2s1 [Example 7, 6-{2-[4-(4-Fluorobenzyl)piperidin-1-ylmethyl]thiazol-5-yl}-3H-benzothiazol-2-one]
- IC50 [1, 3]: 0.45 µM

SMILES: O=c1[nH]c2ccc(C3=NOC(CN4CC[C@@H](Cc5ccc(F)cc5)[C@@H](O)C4)C3)cc2o1 (stereo in doubt) [Example 26, 6-{5-[4-(4-Fluorobenzyl)-3-hydroxypiperidin-1-ylmethyl]-4,5-dihydroisoxazol-3-yl}-3H-benzoxazol-2-one]
- IC50 [1, 5]: 0.023 µM

SMILES: O=c1[nH]c2ccc(C3=NOC(CN4CCC(Cc5ccc(F)cc5)CC4)C3)cc2s1 (centres unmarked) [Example 16]
- IC50 [1, 5]: 0.002 µM

SMILES: O=c1[nH]c2ccc(-c3cnc(CN4CCC(Cc5ccccc5)CC4)o3)cc2o1 [Example 10, 6-[2-(4-Benzylpiperidin-1-ylmethyl)oxazol-5-yl]-3H-benzoxazol-2-one]
- IC50 [1, 3]: > 1 µM

SMILES: Cc1noc(CN2CCC(Cc3ccccc3)CC2)c1-c1ccc2[nH]c(=O)oc2c1 [Example 2, 6-[5-(4-Benzylpiperidin-1-ylmethyl)-3-methylisoxazol-4-yl]-3H-benzoxazol-2-one]
- IC50 [1, 2]: > 1 µM

SMILES: O=c1[nH]c2ccc(C3=NOC(CCN4CCC(Cc5ccc(F)cc5)CC4)C3)cc2o1 (centres unmarked) [Example 19, 6-(5-{2-[4-(4-Fluorobenzyl)piperidin-1-yl]ethyl}-4,5-dihydroisoxazol-3-yl)-3H-benzoxazol-2-one]
- IC50 [1, 2]: 0.4 µM

SMILES: O=c1[nH]c2ccc(C3=NOC(CN4CCC(C(O)c5ccc(F)cc5)CC4)C3)cc2o1 (centres unmarked) (as salt: HCl) [Example 31, 6-(5-{4-[(4-Fluorophenyl)hydroxymethyl]piperidin-1-ylmethyl}-4,5-dihydroisoxazol-3-yl)-3H-benzoxazol-2-one]
- melting point: 186 to 191 °C

SMILES: O=c1[nH]c2ccc(C3=NOC(CN4CCC(Cc5ccc(F)cc5)CC4)C3)cc2o1 (racemic) [Example 3, 6-{5-[4-(4-Fluorobenzyl)piperidin-1-ylmethyl]-4,5-dihydroisoxazol-3-yl}-3H-benzoxazol-2-one hydrochloride]
- IC50 ([1]; Table 1, 4 nM [3H]-ifenprodil, read-out: IFPNR (IC50 μM)): 0.03 µM

SMILES: CCOC(=O)C1(Cc2ccc(F)cc2)CCN(CC2CC(c3ccc4[nH]c(=O)oc4c3)=NO2)CC1 (centres unmarked) [Example 24, 4-(4-Fluorobenzyl)-1-[3-(2-oxo-2,3-dihydrobenzoxazol-6-yl)-4,5-dihydroisoxazol-5-ylmethyl]piperidine-4-carboxylic acid ethyl ester]
- melting point: 212 to 214 °C

SMILES: O=c1[nH]c2ccc(C3=NOC(CN4CCC(O)(Cc5ccccc5)CC4)C3)cc2o1 (centres unmarked) (as salt: HCl) [Example 17, 6-[5-(4-Benzyl-4-hydroxypiperidin-1-ylmethyl)-4,5-dihydroisoxazol-3-yl]-3H-benzoxazol-2-one]
- melting point: 166 to 170 °C
